According to the NIST ThermoML archive (doi:10.1016/j.fluid.2007.07.023):
Numbers after ± are expanded uncertainties.

Experiments:
[1] = 101.33 kPa, Liquid
[2] = refractive index (Na D-line) (dimensionless); conditions: 101.33 kPa, Liquid, Standard Abbe refractometry

Row | SMILES | mass density ([1]; 293.15 K) [kg/m3] | refractive index ([2]; 293.15 K) | other results
1 | Nc1ccccc1 [aniline] | 1021.72 ± 1.6 | 1.5962 ± 0.0007 | –
2 | NC1CCCCC1 [cyclohexylamine] | – | – | mass density ([1]; 303.15 K): 858.2 ± 0.91 kg/m3; refractive index ([2]; 288.15 K): 1.4624 ± 0.0007
3 | CCCCCCCC [octane] | – | – | mass density ([1]; 298.15 K): 698.49 ± 0.71 kg/m3; refractive index ([2]; 298.15 K): 1.3946 ± 0.0007
4 | Cc1ccccc1 [toluene] | 866.78 ± 0.89 | 1.496 ± 0.0007 | –
